Measured values from US7902373B2 (Pfizer Inc, priority 2006, dated 2011).

Biological target: human recombinant H-PGDS (Homo sapiens, UniProt O60760)
Experiment: Fluorescence intensity h-PGDS TBA enzyme assay
Assay type: biochemical
Details: Examples up to 622 (and 3a, 3b)

Chain of human recombinant H-PGDS (O60760 whole entry): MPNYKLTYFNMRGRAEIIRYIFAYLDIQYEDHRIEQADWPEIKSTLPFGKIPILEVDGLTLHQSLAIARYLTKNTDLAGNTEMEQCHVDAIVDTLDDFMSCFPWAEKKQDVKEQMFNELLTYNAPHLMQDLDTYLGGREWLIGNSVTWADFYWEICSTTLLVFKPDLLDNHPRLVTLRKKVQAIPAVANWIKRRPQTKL

Molecule	IC50 [nM]
N#Cc1ccccc1C(=O)c1cccnc1N1CCC(NC(=O)c2ccc(-c3cccc(F)c3)nc2)CC1 [Example 77, N-{1-[3-(2-Cyanobenzoyl)pyridin-2-yl]piperidin-4-yl}-6-(3-fluorophenyl)nicotinamide]	0.425
COc1ccc(CN2CCC(NC(=O)c3ccc(-c4cccc(F)c4)nc3)CC2)cc1CN(C)C [Example 364, N-(1-{3-[(Dimethylamino)methyl]-4-methoxybenzyl}piperidin-4-yl)-6-(3-fluorophenyl)nicotinamide]	4.03
O=C(NC1CCN(Cc2ccnc3ccccc23)CC1)c1ccc(-c2cccc(F)c2)nc1 [Example 189, 6-(3-Fluorophenyl)-N-[1-(quinolin-4-ylmethyl)piperidin-4-yl]nicotinamide]	0.502
CC(C)NC(=O)c1ccc(N2CCC(NC(=O)c3ccc(-c4cccc(F)c4)nc3)CC2)nn1 [Example 157, 6-[4-({[6-(3-Fluorophenyl)pyridin-3-yl]carbonyl}amino)piperidin-1-yl]-N-isopropylpyridazine-3-carboxamide]	0.678
COCCNC(=O)c1ccc(N2CCC(NC(=O)c3ccc(-c4cccc(F)c4)nc3)CC2)nc1 [Example 113, 6-(3-Fluorophenyl)-N-[1-(5-{[(2-methoxyethyl)amino]carbonyl}pyridin-2-yl)piperidin-4-yl]nicotinamide]	0.263
COc1ccccc1C(C)N1CCC(NC(=O)c2ccc(-c3cccc(F)c3)nc2)CC1 (stereo not shown) [Example 530, 6-(3-Fluorophenyl)-N-{1-[1-(2-methoxyphenyl)ethyl]piperidin-4-yl}nicotinamide]	2.71
O=C(NC1CCN(c2ncnc3[nH]ncc23)CC1)c1ccc(-c2cccc(F)c2)nc1 [Example 129, 6-(3-Fluorophenyl)-N-[1-(1H-pyrazolo[3,4-d]pyrimidin-4-yl)piperidin-4-yl]nicotinamide]	6.24
CN(CC1CC1)C(=O)c1ccc(N2CCC(NC(=O)c3ccc(-c4cccc(F)c4)nc3)CC2)nc1 [Example 574, N-(Cyclopropylmethyl)-6-[4-({[6-(3-fluorophenyl)pyridin-3-yl]carbonyl}amino)piperidin-1-yl]-N-methylnicotinamide]	1.24
N#CC1(c2ccc(CN3CCC(NC(=O)c4ccc(-c5cccc(F)c5)nc4)CC3)cc2)CC=CC1 [Example 385, N-{1-[4-(1-Cyanocyclopent-3-en-1-yl)benzyl]piperidin-4-yl}-6-(3-fluorophenyl)nicotinamide]	11.7
Cc1cc(C2CCCN2c2ccnc(N3CCC(NC(=O)c4ccc(-c5cccc(F)c5)nc4)CC3)n2)no1 (stereo not shown) [Example 47, 6-(3-Fluorophenyl)-N-(1-{4-[2-(5-methylisoxazol-3-yl)pyrrolidin-1-yl]pyrimidin-2-yl}piperidin-4-yl)nicotinamide]	2.92
O=C(NC1CCN(Cc2ccc(F)cc2F)CC1)c1ccc(-c2cccc(F)c2)nc1 [Example 237, N-[1-(2,4-Difluorobenzyl)piperidin-4-yl]-6-(3-fluorophenyl)nicotinamide]	0.698
CC(C)CN1CCC(N2CCC(NC(=O)c3ccc(-c4cccc(F)c4)nc3)CC2)CCC1=O (stereo not shown) [Example 538, 6-(3-Fluorophenyl)-N-[1-(1-isobutyl-7-oxoazepan-4-yl)piperidin-4-yl]nicotinamide]	1.94
N#Cc1cc(CN2CCC(NC(=O)c3ccc(-c4cccc(F)c4)nc3)CC2)ccc1F [Example 303, N-[1-(3-Cyano-4-fluorobenzyl)piperidin-4-yl]-6-(3-fluorophenyl)nicotinamide]	0.662
COc1cc(CN2CCC(NC(=O)c3ccc(-c4cccc(F)c4)nc3)CC2)ccc1OCC(F)F [Example 405, N-{1-[(2,2-Difluoroethoxy)-3-methoxybenzyl]piperidin-4-yl}-6-(3-fluorophenyl)nicotinamide]	0.483
CCOC(=O)c1cccc(-n2nnnc2N2CCC(NC(=O)c3ccc(-c4cccc(F)c4)nc3)CC2)c1 [Example 98, Ethyl 3-{5-[4-({[6-(3-fluorophenyl)pyridin-3-yl]carbonyl}amino)piperidin-1-yl]-1H-tetrazol-1-yl}benzoate]	3.7
CCCC(=O)N1CCC(NC(=O)c2ccc(-c3cccc(OC)c3)nc2)CC1 [Example 19, N-(1-Butyrylpiperidin-4-yl)-6-(3-methoxyphenyl)nicotinamide]	36.2
CN(C)CCCOc1ccc(CN2CCC(NC(=O)c3ccc(-c4cccc(F)c4)nc3)CC2)cc1 [Example 214, N-(1-{4-[3-(Dimethylamino)propoxy]benzyl}piperidin-4-yl)-6-(3-fluorophenyl)nicotinamide]	5.55
O=C(NC1CCN(c2nccnc2Cc2ccccc2)CC1)c1ccc(-c2cccc(F)c2)nc1 [Example 79, N-[1-(3-Benzylpyrazin-2-yl)piperidin-4-yl]-6-(3-fluorophenyl)nicotinamide]	2.28
Cc1cc(N(C)C)nc(N2CCC(NC(=O)c3ccc(-c4cccc(F)c4)nc3)CC2)n1 [Example 143, N-{1-[4-(Dimethylamino)-6-methylpyrimidin-2-yl]piperidin-4-yl}-6-(3-fluorophenyl)nicotinamide]	0.688
O=C(NC1CCN(Cc2cccc(-c3ccccn3)c2)CC1)c1ccc(-c2cccc(F)c2)nc1 [Example 188, 6-(3-Fluorophenyl)-N-[1-(3-pyridin-2-ylbenzyl)piperidin-4-yl]nicotinamide]	2.25

Molecule	IC50 [nM]
O=C(NC1CCN(C2CCC(O)(c3ccccc3)CC2)CC1)c1ccc(-c2cccc(F)c2)nc1 (stereo not shown) [Example 558, 6-(3-Fluorophenyl)-N-[1-(4-hydroxy-4-phenylcyclohexyl)piperidin-4-yl]nicotinamide]	0.345
CC(C)Oc1cccc(CN2CCC(NC(=O)c3ccc(-c4cccc(F)c4)nc3)CC2)c1 [Example 206, 6-(3-Fluorophenyl)-N-[1-(3-isopropoxybenzyl)piperidin-4-yl]nicotinamide]	1.84
Cc1cccc(-c2ccc(C(=O)NC3CCN(CC(F)(F)F)CC3)cn2)c1 [Example 21, 6-m-Tolyl-N-(1-(2,2,2-trifluoroethyl)piperidin-4-yl)nicotinamide]	0.898
O=C(NC1CCN(CC2CCC=CO2)CC1)c1ccc(-c2cccc(F)c2)nc1 (stereo not shown) [Example 186, N-[1-(3,4-Dihydro-2H-pyran-2-ylmethyl)piperidin-4-yl]-6-(3-fluorophenyl)nicotinamide]	1.79
O=C(NC1CCN(Cc2ccc(CF)nc2)CC1)c1ccc(-c2cccc(F)c2)nc1 [Example 476, N-(1-{[6-(Fluoromethyl)pyridin-3-yl]methyl}piperidin-4-yl)-6-(3-fluorophenyl)nicotinamide]	0.935
O=C(NC1CCN(Cc2ccccc2Cl)CC1)c1ccc(-c2cccc(F)c2)nc1 [Example 299, N-[1-(2-Chlorobenzyl)piperidin-4-yl]-6-(3-fluorophenyl)nicotinamide]	0.308
Cc1ccc(CN2CCC(NC(=O)c3ccc(-c4cccc(F)c4)nc3)CC2)cn1 [Example 354, 6-(3-Fluorophenyl)-N-{1-[(6-methylpyridin-3-yl)methyl]piperidin-4-yl}nicotinamide]	2.92
Cn1nc(CN2CCC(NC(=O)c3ccc(-c4cccc(F)c4)nc3)CC2)nc1-c1ccc(F)cc1 [Example 484, 6-(3-Fluorophenyl)-N-(1-{[5-(4-fluorophenyl)-1-methyl-1H-1,2,4-triazol-3-yl]methyl}piperidin-4-yl)nicotinamide]	2.68
O=C(NC1CCN(Cc2ccc(C(F)(F)F)nc2)CC1)c1ccc(-c2cccc(F)c2)nc1 [Example 317, 6-(3-Fluorophenyl)-N-(1-{[6-(trifluoromethyl)pyridin-3-yl]methyl}piperidin-4-yl)nicotinamide]	2.07
N-[1-(2-Chloro-2-fluoro-5-methoxybenzyl)piperidin-4- yl]-6-(3-fluorophenyl)nicotinamide [Example 468]	0.375
O=C(NC1CCN(Cc2c(F)cccc2F)CC1)c1ccc(-c2cccc(F)c2)nc1 [Example 244, N-[1-(2,6-Difluorobenzyl)piperidin-4-yl]-6-(3-fluorophenyl)nicotinamide]	0.288
O=C(NC1CCN(Cc2cn[nH]c2-c2ccccc2Cl)CC1)c1ccc(-c2cccc(F)c2)nc1 [Example 382, N-(1-{[5-(2-Chlorophenyl)-1H-pyrazol-4-yl]methyl}piperidin-4-yl)-6-(3-fluorophenyl)nicotinamide]	0.681
O=C(NC1CCN(Cc2ccc3cccc(F)c3n2)CC1)c1ccc(-c2cccc(F)c2)nc1 [Example 430, 6-(3-Fluorophenyl)-N-{1-[(8-fluoroquinolin-2-yl)methyl]piperidin-4-yl}nicotinamide]	1.2
O=C(NC1CCN(Cc2ccc(F)c(F)c2F)CC1)c1ccc(-c2cccc(F)c2)nc1 [Example 236, 6-(3-Fluorophenyl)-N-[1-(2,3,4-trifluorobenzyl)piperidin-4-yl]nicotinamide]	0.577
COc1ccc(OC)c(CN2CCC(NC(=O)c3ccc(-c4cccc(F)c4)nc3)CC2)c1 [Example 205, N-[1-(2,5-Dimethoxybenzyl)piperidin-4-yl]-6-(3-fluorophenyl)nicotinamide]	0.238
CCOc1cc(CN2CCC(NC(=O)c3ccc(-c4cccc(F)c4)nc3)CC2)ccc1O [Example 179, N-(1-(3-Ethoxy-4-hydroxybenzyl)piperidin-4-yl)-6-(3-fluorophenyl)nicotinamide]	2.26
O=C(NC1CCN(Cc2ccn(CCc3ccccc3)n2)CC1)c1ccc(-c2cccc(F)c2)nc1 [Example 394, 6-(3-Fluorophenyl)-N-(1-{[1-(2-phenylethyl)-1H-pyrazol-3-yl]methyl}piperidin-4-yl)nicotinamide]	0.379
CCOC(=O)N1CCC(NC(=O)c2ccc(-c3ccccc3)nc2)CC1 [Example 3b, Ethyl 4-{[(6-phenylpyridin-3-yl)carbonyl]amino}piperidine-1-carboxylate]	0.403
COc1ccc2nccc(CN3CCC(NC(=O)c4ccc(-c5cccc(F)c5)nc4)CC3)c2c1 [Example 471, 6-(3-Fluorophenyl)-N-{1-[(6-methoxyquinolin-4-yl)methyl]piperidin-4-yl}nicotinamide]	2.68
O=C(NC1CCN(Cc2c[nH]nc2-c2ccc(F)cc2)CC1)c1ccc(-c2cccc(F)c2)nc1 [Example 187, 6-(3-Fluorophenyl)-N-(1-{[3-(4-fluorophenyl)-1H-pyrazol-4-yl]methyl}piperidin-4-yl)nicotinamide]	2.59
